Drawing on PubChem BioAssay (NCI), this text covers GI50 and TGI for eight compounds.

Among the test systems are OVCAR-3 ovarian; SW-620 colon; T-47D breast; NCI-H460 lung; IGROV1 ovarian; UACC-62 melanoma; HCC-2998 colon; CAKI-1 renal; SNB-19 CNS; SK-OV-3 ovarian.
Assay in all cases: NCI-60 cell line screen, 48 h

Structures are written as SMILES. “And” between values parts separate entries of the source, which are not always exact repeats. Identical values can stand only once.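 Results reflect a 48-hour exposure of cells in 96-well plates to compound at five concentrations. GI50 is the concentration that inhibits growth by half. At the TGI there is no net growth.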 Where only a bound is given, the exact number is not on record here.

For `Cc1cc(C2CC(O)C(CO)O2)c(Br)cc1Br` (stereo not given), the GI50 in the assay with OVCAR-3 ovarian is over 100 µM; in the assay on SW-620 colon, over 100 µM; with T-47D breast, over 100 µM; in the assay on NCI-H460 lung, over 100 µM; in the assay with IGROV1 ovarian it was 33.8 µM; in the assay on UACC-62 melanoma, 49.7 µM. For the same compound, the GI50 with HCC-2998 colon, in the assay on CAKI-1 renal, in the assay with SNB-19 CNS and in the assay with SK-OV-3 ovarian was over 100 µM throughout. Further, the TGI in the assay with OVCAR-3 ovarian, in the assay with SW-620 colon, in the assay on T-47D breast, in the assay with NCI-H460 lung, in the assay on IGROV1 ovarian and with UACC-62 melanoma was over 100 µM throughout. Also, the TGI in the assay on HCC-2998 colon, in the assay with CAKI-1 renal, in the assay on SNB-19 CNS and with SK-OV-3 ovarian was over 100 µM each time.
For the compound `OCC1OC(N2CCN(C3OC(CO)C(O)C(O)C3O)CC2)C(O)C(O)C1O` (stereo not given), the TGI in the assay with OVCAR-3 ovarian, in the assay on SW-620 colon, in the assay with T-47D breast, with NCI-H460 lung, in the assay with IGROV1 ovarian and with UACC-62 melanoma was over 100 µM each time. The TGI with HCC-2998 colon, in the assay with CAKI-1 renal, in the assay with SNB-19 CNS and with SK-OV-3 ovarian was over 100 µM each time.
Regarding `COc1cc2cc(C(=O)Nc3ccccc3)c(N)nc2cc1OC`, the GI50 was 50.9 µM with OVCAR-3 ovarian; over 100 µM with SW-620 colon; 23.6 µM with T-47D breast; 73.9 µM with NCI-H460 lung; 56.3 µM in the assay with IGROV1 ovarian; 28.6 µM with UACC-62 melanoma. Moreover, the GI50 in the assay with HCC-2998 colon is 94.4 µM; in the assay on CAKI-1 renal, 34.5 µM; in the assay on SNB-19 CNS, over 100 µM; in the assay with SK-OV-3 ovarian, over 100 µM. Further, the TGI with OVCAR-3 ovarian, in the assay on SW-620 colon, in the assay on T-47D breast, with NCI-H460 lung, in the assay on IGROV1 ovarian and in the assay on UACC-62 melanoma was over 100 µM throughout. Further, the TGI in the assay with HCC-2998 colon, in the assay on CAKI-1 renal, in the assay with SNB-19 CNS and with SK-OV-3 ovarian was over 100 µM throughout.
For the compound `COc1ccc(C2CC(=O)Nc3c2c(C)nn3-c2nc3ccccc3[nH]2)cc1OC` (stereo not given), the GI50 in the assay with OVCAR-3 ovarian is 3.99 µM; in the assay on SW-620 colon, 4.86 µM; in the assay on T-47D breast it was 4.49 µM; in the assay with NCI-H460 lung it was 3.46 µM; in the assay on IGROV1 ovarian, 4.67 µM; in the assay on UACC-62 melanoma, 3.15 µM. Moreover, the GI50 was 10.9 µM in the assay with HCC-2998 colon, 3.83 µM in the assay on CAKI-1 renal, 8.64 µM in the assay with SNB-19 CNS and 2.89 µM with SK-OV-3 ovarian. The TGI was 14 µM in the assay on OVCAR-3 ovarian; 49.6 µM in the assay with SW-620 colon; 50.1 µM in the assay with T-47D breast; 16.2 µM in the assay with NCI-H460 lung; over 93.3 µM in the assay with IGROV1 ovarian; 12.8 µM with UACC-62 melanoma. The TGI in the assay on HCC-2998 colon was 41.2 µM; with CAKI-1 renal, 24.3 µM; in the assay with SNB-19 CNS it was over 100 µM; in the assay on SK-OV-3 ovarian it was 6.49 µM.
As to `Cc1cc(C(=O)NOCCO)c(Nc2ccc(I)cc2F)n(C)c1=O`, the GI50 in the assay with OVCAR-3 ovarian is over 100 µM; in the assay on SW-620 colon, 0.00252 µM and < 0.01 µM; in the assay with T-47D breast it was > 10 µM and 78.9 µM; in the assay with NCI-H460 lung, > 10 µM and 46.7 µM; with IGROV1 ovarian, 0.00909 µM and 0.0178 µM; with UACC-62 melanoma, 0.0015 µM and < 0.01 µM. Further, the GI50 is 0.00297 µM and < 0.01 µM with HCC-2998 colon; 0.185 µM with CAKI-1 renal; 6.08 µM with SNB-19 CNS; > 10 µM and 51.6 µM with SK-OV-3 ovarian. Moreover, the TGI in the assay with OVCAR-3 ovarian was over 100 µM; in the assay with SW-620 colon, over 100 µM; in the assay on T-47D breast, over 100 µM; with NCI-H460 lung, over 100 µM; in the assay on IGROV1 ovarian it was over 100 µM; with UACC-62 melanoma it was 0.0116 µM and 0.0221 µM. The TGI in the assay on HCC-2998 colon is over 6.94 µM; in the assay with CAKI-1 renal, over 100 µM; in the assay with SNB-19 CNS, over 100 µM; with SK-OV-3 ovarian, over 100 µM.
For `CN1CCN(CCCn2c3c(sc4ncccc43)c(=O)n3nnc(-c4ccccc4)c23)CC1`, the GI50 in the assay on OVCAR-3 ovarian was 1.81 µM; with SW-620 colon, 1.52 µM; with T-47D breast it was 20.2 µM; in the assay on NCI-H460 lung, 1.65 µM; with IGROV1 ovarian, 1.69 µM; in the assay with UACC-62 melanoma it was 17.6 µM. In addition, the GI50 was 5.12 µM in the assay on HCC-2998 colon, 1.59 µM in the assay on CAKI-1 renal, 2.48 µM in the assay with SNB-19 CNS and 18.4 µM with SK-OV-3 ovarian. For the same compound, the TGI came to 3.42 µM with OVCAR-3 ovarian; 3.25 µM in the assay with SW-620 colon; 39.4 µM in the assay with T-47D breast; 3.37 µM with NCI-H460 lung; 4.22 µM in the assay on IGROV1 ovarian; 33.8 µM with UACC-62 melanoma. Further, the TGI in the assay on HCC-2998 colon amounted to 9.97 µM; in the assay on CAKI-1 renal it was 3.19 µM; in the assay on SNB-19 CNS it was 5.82 µM; with SK-OV-3 ovarian it was 33.3 µM.
Turning to `OCC1OC(n2cnc3cc(Cl)c(Cl)cc32)C(O)C1O` (stereo not given), the GI50 in the assay on OVCAR-3 ovarian is 22.7 µM; with SW-620 colon it was 30.3 µM; with T-47D breast, 26.1 µM; with NCI-H460 lung, 30 µM; in the assay on IGROV1 ovarian, 12.5 µM; in the assay with UACC-62 melanoma, 12.2 µM. Further, the GI50 is 12.7 µM with HCC-2998 colon, 14.2 µM in the assay on CAKI-1 renal, 25.3 µM with SNB-19 CNS and 37.9 µM with SK-OV-3 ovarian. For the same compound, the TGI is 72.3 µM in the assay with OVCAR-3 ovarian; over 76.7 µM in the assay with SW-620 colon; over 71.9 µM with T-47D breast; over 100 µM in the assay on NCI-H460 lung; 34.4 µM in the assay with IGROV1 ovarian; 26.6 µM in the assay on UACC-62 melanoma. Also, the TGI was 27 µM in the assay with HCC-2998 colon, 47.8 µM in the assay on CAKI-1 renal, over 100 µM in the assay with SNB-19 CNS and over 100 µM with SK-OV-3 ovarian.
As to `O=C(COc1ccc(Cl)cc1Cl)NNc1ccc([N+](=O)[O-])cc1`, the GI50 in the assay with OVCAR-3 ovarian is over 100 µM; with SW-620 colon it was over 100 µM; with T-47D breast it was 43.3 µM; with NCI-H460 lung, over 100 µM; in the assay with IGROV1 ovarian it was 36 µM; in the assay with UACC-62 melanoma it was 27.7 µM. Further, the GI50 was over 100 µM in the assay on HCC-2998 colon, over 100 µM with CAKI-1 renal, 25 µM in the assay on SNB-19 CNS and 24 µM in the assay on SK-OV-3 ovarian. The TGI with OVCAR-3 ovarian, in the assay with SW-620 colon, in the assay with T-47D breast, in the assay on NCI-H460 lung, in the assay with IGROV1 ovarian and with UACC-62 melanoma was over 100 µM each time. Moreover, the TGI in the assay with HCC-2998 colon is over 100 µM; in the assay with CAKI-1 renal, over 100 µM; in the assay on SNB-19 CNS, 95.6 µM; in the assay with SK-OV-3 ovarian, 55 µM.
